Reference: PubChem BioAssay AID2060328 (Molecular Pharmacology Branch, DTP, NCI, 2025)
“And” between values parts separate entries of the source, which are not always exact repeats. Equal values may be shown once.

Tested on: MDA-MB-231 multicell spheroids, viability (%T/C)
Experiment: Anticancer human tumor MDA-MB-231 cell line growth inhibition [IpAb];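 note: viability read after seven days of drug exposure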;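 for viability, T/C: 100% = DMSO vehicle control viability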
Conditions: for viability, T/C: stronger effect = lower value
Outline: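 Multi-cell spheroids of 60% tumour cells, 25% HUVEC and 15% MSC in ultra-low-attachment U-bottom wells, treated with agents combined with ipatasertib or abemaciclib. Half-log ranges top out near clinical Cmax, or 10 microM when Cmax is unknown.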

[1] = curve of first compound, second compound 0.1 µM
[2] = curve of first compound, second compound 0.316 µM
[3] = curve of first compound, second compound 1 µM
[4] = curve of first compound, second compound 3.16 µM
[5] = curve of first compound, second compound 10 µM

Structure (SMILES): CC(=O)c1c(C)c2cnc(Nc3ccc(N4CCNCC4)cn3)nc2n(C2CCCC2)c1=O + CC(C)NCC(C(=O)N1CCN(c2ncnc3c2C(C)CC3O)CC1)c1ccc(Cl)cc1
- IC50 [1]: 35.1 nM
- IC50 [2]: 17.3 nM
- IC50 [3]: 7.21 nM
- IC50 [4]: 1.28 nM
- IC50 [5]: < 0.949 nM
- viability, T/C (second compound 0.1 µM, first compound 0.000949 µM): 93.3%
- viability, T/C (second compound 0.1 µM, first compound 0.003 µM): 89.6%
- viability, T/C (second compound 0.1 µM, first compound 0.00949 µM): 67.7%
- viability, T/C (second compound 0.1 µM, first compound 0.03 µM): 53%
- viability, T/C (second compound 0.1 µM, first compound 0.0949 µM): 40.3%
- viability, T/C (second compound 0.1 µM, first compound 0.3 µM): 35%
- viability, T/C (second compound 0.316 µM, first compound 0.000949 µM): 82.4%
- viability, T/C (second compound 0.316 µM, first compound 0.003 µM): 73.8%
- viability, T/C (second compound 0.316 µM, first compound 0.00949 µM): 58.9%
- viability, T/C (second compound 0.316 µM, first compound 0.03 µM): 42%
- viability, T/C (second compound 0.316 µM, first compound 0.0949 µM): 34.4%
- viability, T/C (second compound 0.316 µM, first compound 0.3 µM): 32%
- viability, T/C (second compound 1 µM, first compound 0.000949 µM): 69%
- viability, T/C (second compound 1 µM, first compound 0.003 µM): 60.9%
- viability, T/C (second compound 1 µM, first compound 0.00949 µM): 45.9%
- viability, T/C (second compound 1 µM, first compound 0.03 µM): 36%
- viability, T/C (second compound 1 µM, first compound 0.0949 µM): 26.9%
- viability, T/C (second compound 1 µM, first compound 0.3 µM): 26.3%
- viability, T/C (second compound 3.16 µM, first compound 0.000949 µM): 50.4%
- viability, T/C (second compound 3.16 µM, first compound 0.003 µM): 47.5%
- viability, T/C (second compound 3.16 µM, first compound 0.00949 µM): 39.5%
- viability, T/C (second compound 3.16 µM, first compound 0.03 µM): 29.1%
- viability, T/C (second compound 3.16 µM, first compound 0.0949 µM): 25.5%
- viability, T/C (second compound 3.16 µM, first compound 0.3 µM): 22.2%
- viability, T/C (second compound 10 µM, first compound 0.000949 µM): 38.5%
- viability, T/C (second compound 10 µM, first compound 0.003 µM): 33.9%
- viability, T/C (second compound 10 µM, first compound 0.00949 µM): 27.2%
- viability, T/C (second compound 10 µM, first compound 0.03 µM): 24.7%
- viability, T/C (second compound 10 µM, first compound 0.0949 µM): 22.4%
- viability, T/C (second compound 10 µM, first compound 0.3 µM): 20.3%

Structure (SMILES): CC(=O)c1c(C)c2cnc(Nc3ccc(N4CCNCC4)cn3)nc2n(C2CCCC2)c1=O
- viability, T/C (compound 0.000949 µM): 103% and 105%
- viability, T/C (compound 0.003 µM): 88.5% and 88.2%
- viability, T/C (compound 0.00949 µM): 74% and 79.3%
- viability, T/C (compound 0.03 µM): 57.7% and 57.8%
- viability, T/C (compound 0.0949 µM): 42.3% and 46%
- viability, T/C (compound 0.3 µM): 38.7% and 38.9%
- IC50 (curve of compound): 56.4 nM and 70.1 nM

Structure (SMILES): Cn1nccc1Nc1nccc(-c2ccn(C(CO)c3ccc(Cl)c(F)c3)c(=O)c2)n1 (configuration not stated) + CC(C)NCC(C(=O)N1CCN(c2ncnc3c2C(C)CC3O)CC1)c1ccc(Cl)cc1
- IC50 [1]: 259 nM
- IC50 [2]: 45.9 nM
- IC50 [3]: < 31.6 nM
- IC50 [4]: < 31.6 nM
- IC50 [5]: < 31.6 nM
- viability, T/C (second compound 0.1 µM, first compound 0.0316 µM): 64.3%
- viability, T/C (second compound 0.1 µM, first compound 0.1 µM): 53.5%
- viability, T/C (second compound 0.1 µM, first compound 0.316 µM): 48.7%
- viability, T/C (second compound 0.1 µM, first compound 1 µM): 43.1%
- viability, T/C (second compound 0.1 µM, first compound 3.16 µM): 25.2%
- viability, T/C (second compound 0.1 µM, first compound 10 µM): 18.7%
- viability, T/C (second compound 0.316 µM, first compound 0.0316 µM): 52.8%
- viability, T/C (second compound 0.316 µM, first compound 0.1 µM): 43.8%
- viability, T/C (second compound 0.316 µM, first compound 0.316 µM): 38.1%
- viability, T/C (second compound 0.316 µM, first compound 1 µM): 29.3%
- viability, T/C (second compound 0.316 µM, first compound 3.16 µM): 23.5%
- viability, T/C (second compound 0.316 µM, first compound 10 µM): 18%
- viability, T/C (second compound 1 µM, first compound 0.0316 µM): 38.7%
- viability, T/C (second compound 1 µM, first compound 0.1 µM): 36.1%
- viability, T/C (second compound 1 µM, first compound 0.316 µM): 32.2%
- viability, T/C (second compound 1 µM, first compound 1 µM): 27.8%
- viability, T/C (second compound 1 µM, first compound 3.16 µM): 16.3%
- viability, T/C (second compound 1 µM, first compound 10 µM): 15.3%
- viability, T/C (second compound 3.16 µM, first compound 0.0316 µM): 34.3%
- viability, T/C (second compound 3.16 µM, first compound 0.1 µM): 28.7%
- viability, T/C (second compound 3.16 µM, first compound 0.316 µM): 27.1%
- viability, T/C (second compound 3.16 µM, first compound 1 µM): 21.5%
- viability, T/C (second compound 3.16 µM, first compound 3.16 µM): 12.9%
- viability, T/C (second compound 3.16 µM, first compound 10 µM): 10.4%
- viability, T/C (second compound 10 µM, first compound 0.0316 µM): 24.2%
- viability, T/C (second compound 10 µM, first compound 0.1 µM): 22.8%
- viability, T/C (second compound 10 µM, first compound 0.316 µM): 16.7%
- viability, T/C (second compound 10 µM, first compound 1 µM): 14.9%
- viability, T/C (second compound 10 µM, first compound 3.16 µM): 9%
- viability, T/C (second compound 10 µM, first compound 10 µM): 6.42%
